Source: US11969419B2, “Method of treating cancer” (Exelixis, Inc., priority 2010, dated 2024)

Assays:
[1] = system: castration-resistant prostate cancer (CRPC) with bone metastases; assay: Adaptive phase 2 trial (NCT00940225), case studies of the first three CRPC patients with bone metastases, Compound 1 100 mg; format: in vivo, human; conditions: for Bone scan (best response) / Pain (best response): preliminary best response
Description: In 2000, local disease recurrence was treated with radiation therapy. […] CAB with leuprolide and bicalutanide was initiated. […] All patients provided informed consent before study screening.

[2] = phase 1 clinical study; cited from earlier work
xenograft tumor models = conditions: cited from earlier work
[3] = system: pancreatic neuroendocrine tumor model; conditions: murine pancreatic neuroendocrine tumor model; cited from earlier work
endothelial cells = conditions: cited from earlier work
tumor cells = conditions: cited from earlier work
[4] = three metastatic CRPC patients, summary

COc1cc2nccc(Oc3ccc(NC(=O)C4(C(=O)Nc5ccc(F)cc5)CC4)cc3)c2cc1OC [Compound 1, N-(4-{[6,7-bis(methyloxy)quinolin-4-yl]oxy}phenyl)-N′-(4-fluorophenyl)cyclopropane-1,1-dicarboxamide]
Bone scan: radiotracer uptake by bone metastases ([1]; Patient 1, Week 6): dramatic decrease in radiotracer uptake
CT scan response category ([1]; Patient 1, Week 6): partial response (PR)
CT scan: decrease in measurable target lesions ([1]; Patient 1, Week 6): 33%
Bone lesions on bone scan ([1]; Patient 1, Week 12, stable through Week 18): near complete resolution of bone lesions
Adverse event leading to withdrawal ([1]; Patient 1, Week 18): Grade 3 diarrhea
Bone pain ([1]; Patient 1, four weeks after start): significant reduction in bone pain
Bone scan (best response) ([1]; Patient 1): Complete resolution
Pain (best response) ([1]; Patient 1): Improvement
Bone pain ([1]; Patient 2, Week 4): reduction in bone pain
Bone scan: radiotracer uptake by bone lesions ([1]; Patient 2, Week 6): slight flair in radiotracer uptake
CT scan: decrease in target lesions ([1]; Patient 2, Week 6): 13%
Bone scan: radiotracer uptake ([1]; Patient 2, Week 12): substantial reduction of radiotracer uptake
Bone scan (best response) ([1]; Patient 2): Improvement
Pain (best response) ([1]; Patient 2): Pain-free
Bone scan: radiotracer uptake ([1]; Patient 3, Week 6): dramatic reduction in radiotracer uptake
CT scan: decrease in measurable target lesions ([1]; Patient 3, Week 6): 43%
Bone lesions on bone scan ([1]; Patient 3, Week 12): complete resolution of bone lesions
Pain ([1]; Patient 3, after three weeks): complete resolution of pain
Bone scan (best response) ([1]; Patient 3): Near resolution
Pain (best response) ([1]; Patient 3): Pain-free
Bone pain ([1]; all three patients, discussion): substantial reductions in bone pain
Soft tissue lesions ([1]; all three patients, discussion): response or stabilization
Uptake of radiotracer on bone scan ([1]; all three patients, discussion): striking decrease
Bone lesions [1, 4]: near complete resolution of bone lesions
Bone pain [1, 4]: marked reduction
Measurable disease [1, 4]: reduction in measurable disease
Total serum alkaline phosphatase (tALP) levels [1, 4]: marked reduction
Most commonly observed adverse events [2]: fatigue, diarrhea, anorexia, rash, and palmar-plantar erythrodysesthesia
Tolerability [2]: generally well-tolerated
Tumor regression (xenograft tumor models): causes tumor regression
Overall survival [3]: substantially improves
Tumor invasiveness and metastasis [3]: significantly reduces
Apoptosis of endothelial cells (endothelial cells): rapidly induces apoptosis
Apoptosis of tumor cells (tumor cells): rapidly induces apoptosis
